# From patent publication US8293208B2, “Fluorinated fructose derivatives for PET imaging” (The Governors of the University of Alberta, priority 2009, dated 2012)
# Key:
# MDA-MB-231 cells [1] = experiment: Inhibition of [14C]-D-fructose transport (hexose flux) in MDA-MB-231 cells; assay type: cell-based, human
# Description: (§1) Both MCF-7 and MDA-MB-231 cells (Gifts from Dr. David Murray, Cross Cancer Institute, Edmonton, Canada) were grown in a 37° C., 5% CO2 incubator, in Gibco® DMEM-F12 supplemented with 15 mM HEPES, L-glutamine, 10% fetal bovine serum and 1% penicillin/streptomycin with media renewal every 2 to 3 days. For cell flux studies, cells were grown to confluence in 12-well plates with media renewal every two days. Two hours before performing the flux experiment, the media was removed, and the cells washed twice with phosphate buffered saline solution (PBS). Glucose-free Krebs-Ringer solution was added to the wells (120 mM NaCl, 25 mM NaHCO3, 4 mM KCl, 1.2 mM KH2PO4, 2.5 mM MgSO4, 70 uM CaCl2, pH 7.4) to deprive the cells of nutrients and to set up a zero-trans experiment. After two hours, cells were removed from the incubator, and the respective experiments were performed. Radioactive “Hot” flux solutions were made up using the Krebs-Ringer solution previously mentioned and radiolabelled [^14C]-D-glucose (Amersham), [^14C]-D-fructose (Moravek Biochemicals), or [^14C]6FDF (proprietary) at a specific activity of approximately 1 μCi/ml. For determining background levels of radioactivity, a sodium reduced Krebs solution was made (70 mM NaCl, 25 mM NaHCO3, 4 mM KCl, 1.2 mM KH2PO4, 2.5 mM MgSO4, 70 μM CaCl2, pH 7.4) with the addition of either 100 mM D-glucose or 100 mM D-fructose to outcompete the binding sites of the specific GLUT transporters under examination. […] Three 150 μl samples from each well were placed into scintillation counter vials, and 4 ml of ScintiSafe™ liquid scintillation fluid (Fisher) was added. The vials were then placed in a Beckman™ LS 6500 multi-purpose liquid scintillation counter to be quantified. All counts were then normalized to standards and corrected for background accumulation of isotope.
# (§2) All uptake values were corrected for their respective adhering extracellular substrate, and Ki values were determined using non-linear regression in GraphPad Prism™ 5 (GraphPad Software, Inc., La Jolla, Calif.). ANOVA analysis was also performed in GraphPad Prism™ 5.
# MCF-7 cells [2] = experiment: Inhibition of [14C]-D-fructose transport (hexose flux) in MCF-7 cells; assay type: cell-based, human
# Description: as §1, §2
# MCF-7 cells [3] = experiment: [14C]-6-deoxy-6-fluoro-D-fructose uptake in MCF-7 cells; assay type: cell-based, human; settings: for uptake time course: 90 minute incubation, MCF-7, corrected for non-mediated hexose uptake
# Description: as §1, §2
# MDA-MB-231 cells [4] = experiment: [14C]-6-deoxy-6-fluoro-D-fructose uptake in MDA-MB-231 cells; assay type: cell-based, human; settings: 90 minute incubation, MDA-MB-231, corrected for non-mediated hexose uptake
# Description: Both MCF-7 and MDA-MB-231 cells (Gifts from Dr. David Murray, Cross Cancer Institute, Edmonton, Canada) were grown in a 37° C., 5% CO2 incubator, in Gibco® DMEM-F12 supplemented with 15 mM HEPES, L-glutamine, 10% fetal bovine serum and 1% penicillin/streptomycin with media renewal every 2 to 3 days. For cell flux studies, cells were grown to confluence in 12-well plates with media renewal every two days. Two hours before performing the flux experiment, the media was removed, and the cells washed twice with phosphate buffered saline solution (PBS). […] For determining background levels of radioactivity, a sodium reduced Krebs solution was made (70 mM NaCl, 25 mM NaHCO3, 4 mM KCl, 1.2 mM KH2PO4, 2.5 mM MgSO4, 70 μM CaCl2, pH 7.4) with the addition of either 100 mM D-glucose or 100 mM D-fructose to outcompete the binding sites of the specific GLUT transporters under examination. […] The vials were then placed in a Beckman™ LS 6500 multi-purpose liquid scintillation counter to be quantified. […]
# (§3) All uptake values were corrected for their respective adhering extracellular substrate, and Ki values were determined using non-linear regression in GraphPad Prism™ 5 (GraphPad Software, Inc., La Jolla, Calif.). […]
# MCF-7 cells [5] = experiment: Inhibition of [14C]-D-glucose transport (hexose flux) in MCF-7 cells; assay type: cell-based, human; settings: for Ki: [14C]-D-glucose
# Description: (§4) Both MCF-7 and MDA-MB-231 cells (Gifts from Dr. David Murray, Cross Cancer Institute, Edmonton, Canada) were grown in a 37° C., 5% CO2 incubator, in Gibco® DMEM-F12 supplemented with 15 mM HEPES, L-glutamine, 10% fetal bovine serum and 1% penicillin/streptomycin with media renewal every 2 to 3 days. For cell flux studies, cells were grown to confluence in 12-well plates with media renewal every two days. Two hours before performing the flux experiment, the media was removed, and the cells washed twice with phosphate buffered saline solution (PBS). Glucose-free Krebs-Ringer solution was added to the wells (120 mM NaCl, 25 mM NaHCO3, 4 mM KCl, 1.2 mM KH2PO4, 2.5 mM MgSO4, 70 uM CaCl2, pH 7.4) to deprive the cells of nutrients and to set up a zero-trans experiment. After two hours, cells were removed from the incubator, and the respective experiments were performed. Radioactive “Hot” flux solutions were made up using the Krebs-Ringer solution previously mentioned and radiolabelled [^14C]-D-glucose (Amersham), [^14C]-D-fructose (Moravek Biochemicals), or [^14C]6FDF (proprietary) at a specific activity of approximately 1 μCi/ml. For determining background levels of radioactivity, a sodium reduced Krebs solution was made (70 mM NaCl, 25 mM NaHCO3, 4 mM KCl, 1.2 mM KH2PO4, 2.5 mM MgSO4, 70 μM CaCl2, pH 7.4) with the addition of either 100 mM D-glucose or 100 mM D-fructose to outcompete the binding sites of the specific GLUT transporters under examination. After applying the test flux solution, incubations lasted for 25 minutes, where the cells were then rinsed twice with ice-cold Krebs-Ringer to stop the transport, and then lysed using 500 μl 5% trichloracetic acid and left to sit on a shaker bed overnight. […] The vials were then placed in a Beckman™ LS 6500 multi-purpose liquid scintillation counter to be quantified. […]
# as §3
# Storage stability = assay type: physicochemical; settings: prolonged storage
# MDA-MB-231 cells [6] = experiment: Inhibition of [14C]-D-glucose transport (hexose flux) in MDA-MB-231 cells; assay type: cell-based, human; settings: for Ki: [14C]-D-glucose
# Description: as §4, §3
# [7] = listed as [^14C]-labelled 6-deoxy-6-fluoro-D-fructose
# [8] = increasing concentrations, MDA-MB-231
# [9] = increasing concentrations, MCF-7
structure (smiles),measurement,setting,value
"C=C1[C@@H](C)[C@H]2[C@H](Cc3ccccc3)NC(=O)[C@]23OC(=O)/C=C/[C@H](O)CCC[C@@H](C)C/C=C/[C@H]3[C@@H]1O [CB, cytochalasin B, reference compound]",share of total fructose flux inhibited (GLUT2-mediated),"MDA-MB-231 cells [1]; 100 μM CB, [14C]-D-fructose, 90 minute flux, MDA-MB-231",approximately 30%
same,effect on fructose transport,"MCF-7 cells [2]; 100 μM CB, [14C]-D-fructose, 60 minutes, MCF-7",no significant transport difference
same,share of total fructose flux inhibited (GLUT2-mediated),"MCF-7 cells [2]; 100 μM CB, [14C]-D-fructose, 90 minute flux, MCF-7",about 12%
same,effect on 6-deoxy-6-fluoro-D-fructose transport,"MCF-7 cells [3]; 100 μM CB, [14C]-6-deoxy-6-fluoro-D-fructose, 60 minutes, MCF-7",no significant transport difference
O=C(CO)[C@@H](O)[C@H](O)[C@H](O)CF [[^14C]-6-deoxy-6-fluoro-D-fructose],uptake time course,MCF-7 cells [3],Near linear uptake
same,uptake time course,MCF-7 cells [3]; [7],Near linear uptake over time
same,increase in uptake compared to [14C]-D-fructose,"MCF-7 cells [3]; MCF-7, one hour incubation, 2-way ANOVA p=0.0028",almost two-fold increase
same,uptake time course,MDA-MB-231 cells [4],Near linear uptake
same,uptake time course,MDA-MB-231 cells [4]; [7],Near linear uptake over time
OCC1(O)O[C@H](CF)[C@@H](O)[C@@H]1O (stereo partly drawn) [6-deoxy-6-fluoro-D-fructose],Ki,"MDA-MB-231 cells [1]; [14C]-D-fructose, 25 minute incubation, MDA-MB-231, n=3",330 ± 153 µM
same,"inhibition of [14C]-D-fructose transport, in words",MDA-MB-231 cells [1]; [8],dose dependent inhibition
same,Ki,"MCF-7 cells [5]; 25 minute incubation, MCF-7, n=3",~916 µM
same,Ki,MCF-7 cells [5]; MCF-7 (FIG. 7A),~916 µM
same,"inhibition of [14C]-D-glucose transport, in words",MCF-7 cells [5]; [9],dose dependent inhibition
same,Ki,"MCF-7 cells [2]; [14C]-D-fructose, 25 minute incubation, MCF-7, n=3",154 ± 54 µM
same,"inhibition of [14C]-D-fructose transport, in words",MCF-7 cells [2]; [9],dose dependent inhibition
same,stability during storage,Storage stability,not stable during prolonged storage
same,Ki,"MDA-MB-231 cells [6]; 25 minute incubation, MDA-MB-231, n=3",6210 ± 2860 µM
same,Ki,MDA-MB-231 cells [6]; MDA-MB-231 (FIG. 7B),6210 ± 2860 µM
same,"inhibition of [14C]-D-glucose transport, in words",MDA-MB-231 cells [6]; [8],dose dependent inhibition
